Calls of active or inactive are those of the source. No cut-off for these calls is given here.
How the values were obtained:
SK-BR-3 = assay: Induction of microtubule destabilization in human SKBR3 cells assessed as soluble fraction of protein at 2.5 uM after 24 hrs by Western blot analysis; assay type: cell-based
[1] = system: Cellular tumor antigen p53 (Homo sapiens), P04637 [R175H]; assay: Reactivation of human p53 R175H mutant in human SKBR3 cells assessed as upregulation of Aurora kinase A expression at 2.5 uM after 24 hrs by Western blot analysis; assay type: cell-based; details: SK-BR-3
[2] = system: Cellular tumor antigen p53 (Homo sapiens), P04637 [R175H]; assay: Reactivation of p53 R175H mutant in human SKBR3 cells at 5 uM after 12 hrs by flow cytometric analysis; assay type: cell-based; details: SK-BR-3
Tubulin (Bos taurus) = Tubulin (Bos taurus) (UniProt Q6B856+Q862L2+Q862F3); assay: Inhibition of bovine brain tubulin polymerization measured every 1 min for 30 mins by fluorescence assay
[3] = system: Cellular tumor antigen p53 (Homo sapiens), P04637 [R175H]; assay: Reactivation of human p53 R175H mutant in human SKBR3 cells assessed as upregulation of MDM2 expression after 24 hrs by Western blot analysis; assay type: cell-based; details: SK-BR-3
[4] = system: Cellular tumor antigen p53 (Homo sapiens), P04637 [R175H]; assay: Reactivation of human p53 R175H mutant in human SKBR3 cells assessed as upregulation of PUMA expression after 24 hrs by Western blot analysis; assay type: cell-based; details: SK-BR-3
[5] = system: Cellular tumor antigen p53 (Homo sapiens), P04637 [R175H]; assay: Reactivation of human p53 R175H mutant in SKBR3 cells assessed as increase in p53 DNA binding at 5 uM by biotinylated double stranded DNA probe-based electrophoretic-mobility shift assay; assay type: cell-based; details: SK-BR-3
[6] = system: Cellular tumor antigen p53 (Homo sapiens), P04637 [R175H]; assay: Reactivation of human p53 R175H mutant in human SKBR3 cells assessed as upregulation of cyclin B1 expression at 2.5 uM after 24 hrs by Western blot analysis; assay type: cell-based; details: SK-BR-3
[7] = system: Cellular tumor antigen p53 (Homo sapiens), P04637 [R175H]; assay: Reactivation of human p53 R175H mutant in human SKBR3 cells assessed as downregulation of CDC25C expression at 2.5 uM after 24 hrs by Western blot analysis; assay type: cell-based; details: SK-BR-3
[8] = system: Cellular tumor antigen p53 (Homo sapiens), P04637 [R175H]; assay: Reactivation of human p53 R175H mutant in human SKBR3 cells assessed as upregulation of p21cip1 expression after 24 hrs by Western blot analysis; assay type: cell-based; details: SK-BR-3
[9] = system: Cellular tumor antigen p53 (Homo sapiens), P04637 [R175H]; assay: Reactivation of p53 R175H mutant in human SKBR3 cells assessed as accumulation of wild type p53 at 5 uM after 12 hrs by DAPI staining based confocal/multiphoton microscopic analysis; assay type: cell-based; details: SK-BR-3
[10] = system: Cellular tumor antigen p53 (Homo sapiens), P04637 [R175H]; assay: Reactivation of human p53 R175H mutant in SKBR3 cells assessed as increase in p53 DNA binding at 5 uM by non biotinylated double stranded DNA probe-based electrophoretic-mobility shift assay; assay type: cell-based; details: SK-BR-3
[11] = system: Cellular tumor antigen p53 (Homo sapiens), P04637 [R175H]; assay: Reactivation of human p53 R175H mutant in human SKBR3 cells assessed as decrease in mutant p53 expression after 12 hrs by immunoprecipitation/Western blot analysis; assay type: cell-based; parameters: scale not given: the % may be the effect or the level left; details: SK-BR-3
[12] = system: Cellular tumor antigen p53 (Homo sapiens), P04637 [R175H]; assay: Reactivation of human p53 R175H mutant in human SKBR3 cells assessed as cell cycle arrest at G2/M phase at 2.5 uM after 24 hrs by propidium iodide staining based flow cytometric analysis; details: SK-BR-3
[13] = system: Cellular tumor antigen p53 (Homo sapiens), P04637 [R175H]; assay: Reactivation of human p53 R175H mutant in human SKBR3 cells assessed as increase in wild type p53 expression after 12 hrs by immunoprecipitation/Western blot analysis; assay type: cell-based; details: SK-BR-3
[14] = Cytotoxicity against human HT1080 cells assessed as cell viability after 72 hrs by resazurin reduction assay; assay type: functional, cell-based; details: HT-1080, 72 h
[15] = Cytotoxicity against human GBM10 cells assessed as cell viability after 72 hrs by resazurin reduction assay; assay type: functional, cell-based; details: GBM10, 72 h
[16] = Cytotoxicity against human SF188 cells assessed as cell viability after 72 hrs by resazurin reduction assay; assay type: functional, cell-based; details: SF-188, 72 h
[17] = Cytotoxicity against human SKBR3 cells assessed as cell viability after 72 hrs by resazurin reduction assay; assay type: functional, cell-based; details: SK-BR-3, 72 h
T98G = assay: Cytotoxicity against human T98G cells assessed as cell viability after 72 hrs by resazurin reduction assay; assay type: functional, cell-based
A549 = assay: Cytotoxicity against human A549 cells assessed as cell viability after 72 hrs by resazurin reduction assay; assay type: functional, cell-based; details: A549, 72 h
HT-29 = assay: Cytotoxicity against human HT-29 cells assessed as cell viability after 72 hrs by resazurin reduction assay; assay type: functional, cell-based; details: HT-29, 72 h
MCF7 = assay: Cytotoxicity against human MCF7 cells assessed as cell viability after 72 hrs by resazurin reduction assay; assay type: functional, cell-based; details: MCF7, 72 h

| SMILES | inhibition (Tubulin (Bos taurus)) | IC50 [14] | IC50 [15] | IC50 [16] | IC50 [17] | IC50 (T98G) | IC50 (A549) | IC50 (HT-29) | IC50 (MCF7) | further results |
| --- | --- | --- | --- | --- | --- | --- | --- | --- | --- | --- |
| COC(=O)Nc1nc2cc(C(=O)c3cccs3)ccc2[nH]1 |  |  |  |  |  |  |  |  |  | Activity (SK-BR-3): Active |
| COc1ccc(/C(=C\c2cc(OC)c(OC)c(OC)c2)C(=O)N2CCC=CC2=O)cc1 | Dose-dependent effect |  |  |  |  |  |  |  |  | Activity [1]: Active; Activity [2]: Active; Activity [3]: Dose-dependent effect; Activity [4]: Dose-dependent effect; Activity [5]: Active; Activity [6]: Active; Activity [7]: Active; Activity [8]: Dose-dependent effect; Activity [9]: Active; Activity [10]: inactive; Activity [11]: 90%; Activity [12]: > 60%; Activity [13]: 80% |
| COc1ccc(/C=C\c2cc(OC)c(OC)c(OC)c2)cc1O [COMBRETASTATIN A4] | Dose-dependent effect | 70 nM | 52 nM | 21 nM | 8 nM | 11 nM | 3 nM | 420 nM | 42 nM |  |
| COc1cc(/C=C/C(=O)N2CCC=CC2=O)cc(OC)c1OC [PIPLARTINE] |  | 3430 nM | 3810 nM | 3900 nM | 4040 nM | 4920 nM | 6540 nM | 5490 nM | 6140 nM |  |

Reference: ChEMBL document CHEMBL3763080, “Design and synthesis of a C7-aryl piperlongumine derivative with potent antimicrotubule and mutant p53-reactivating properties” (Eur J Med Chem, 2016)
